Measured values as given in patent US12522594B2, “2-heteroaryl-3-oxo-2,3-dihydropyridazine-4-carboxamides for the treatment of cancer” (Deutsches Krebsforschungszentrum, priority 2017, dated 2026).

How the values were obtained:
AHR [1] = target: T1, AHR (Homo sapiens, UniProt P35869); experiment: In vitro assay 2: agonism in human cell line (transactivation assay, U87 cells, DRE firefly luciferase reporter); format: cell-based; parameters: host or cells: U87 glioblastoma cells, stably transfected with DRE firefly luciferase and renilla reporter constructs; settings: no kynurenic acid, 20 hours, read-out: Assay 2: AHR-luc Hum Agonism IC50
T1 sequence (P35869 11-848): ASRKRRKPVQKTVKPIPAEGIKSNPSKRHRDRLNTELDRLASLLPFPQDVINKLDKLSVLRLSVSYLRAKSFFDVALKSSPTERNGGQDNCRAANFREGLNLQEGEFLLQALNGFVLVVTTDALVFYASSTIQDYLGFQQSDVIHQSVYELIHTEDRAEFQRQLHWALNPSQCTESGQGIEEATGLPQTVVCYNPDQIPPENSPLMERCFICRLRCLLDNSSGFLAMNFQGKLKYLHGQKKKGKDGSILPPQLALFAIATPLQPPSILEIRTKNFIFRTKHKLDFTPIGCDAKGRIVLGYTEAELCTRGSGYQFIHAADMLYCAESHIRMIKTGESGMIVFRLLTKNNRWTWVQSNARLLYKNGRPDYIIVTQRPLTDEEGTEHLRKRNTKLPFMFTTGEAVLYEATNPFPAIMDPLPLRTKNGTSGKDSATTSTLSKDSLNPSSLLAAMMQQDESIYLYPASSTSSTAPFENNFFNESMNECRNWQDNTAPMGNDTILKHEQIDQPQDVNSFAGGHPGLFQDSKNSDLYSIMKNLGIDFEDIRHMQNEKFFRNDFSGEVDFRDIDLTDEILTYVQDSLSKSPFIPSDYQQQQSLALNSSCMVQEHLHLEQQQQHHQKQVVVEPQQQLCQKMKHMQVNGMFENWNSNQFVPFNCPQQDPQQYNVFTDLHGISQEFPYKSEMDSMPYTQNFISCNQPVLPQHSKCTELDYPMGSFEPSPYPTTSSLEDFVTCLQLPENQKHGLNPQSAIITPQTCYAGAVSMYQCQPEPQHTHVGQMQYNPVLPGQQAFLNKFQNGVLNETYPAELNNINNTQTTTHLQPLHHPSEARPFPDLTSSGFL
Summary of the method: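 U87 glioblastoma cells with endogenous AHR, stably carrying DRE-driven firefly luciferase and constitutive renilla reporters. 300 uM kynurenic acid served as positive activation control; data normalized to positive and negative controls.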

AHR [2] = target: T1, AHR; experiment: In vitro assay 1: antagonism in human cell line (transactivation assay, U87 cells prestimulated with kynurenic acid, DRE firefly luciferase reporter); format: cell-based; parameters: host or cells: U87 glioblastoma cells, stably transfected with DRE firefly luciferase and renilla reporter constructs; settings: 150 uM kynurenic acid, 20 hours, read-out: Assay 1: AHR-luc Hum Antagonism IC50
Summary of the method: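 U87 glioblastoma cells with endogenous AHR, stably carrying a DRE-driven firefly luciferase reporter and a constitutive renilla reporter. Cells prestimulated with the AHR agonist kynurenic acid before compound addition; data normalized to positive and negative controls.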

IC50 (AHR [1])	IC50 (AHR [2])	SMILES
> 20000 nM	13.9 nM	O=C(NCC(O)C(F)F)c1cc(-c2ccc(C(F)(F)F)cc2)nn(-c2cccnc2)c1=O (single isomer, unassigned; (+)) [Example 247, (+)-N-(3,3-Difluoro-2-hydroxypropyl)-3-oxo-2-(pyridin-3-yl)-6-[4-(trifluoromethyl)phenyl]-2,3-dihydropyridazine-4-carboxamide]
> 20000 nM	17.9 nM	Cn1cc(-n2nc(-c3ccc(OC(F)(F)F)cc3)cc(C(=O)N[C@@H]3COC[C@@H]3O)c2=O)cn1 (racemic) [Example 55, N-[(cis)-4-Hydroxytetrahydrofuran-3-yl]-2-(1-methyl-1H-pyrazol-4-yl)-3-oxo-6-[4-(trifluoromethoxy)phenyl]-2,3-dihydropyridazine-4-carboxamide]
> 20000 nM	2.07 nM	O=C(N[C@H](CO)C(F)(F)F)c1cc(-c2ccc(C(F)(F)F)cc2)nn(-c2cnn(C(F)F)c2)c1=O [Example 214, 2-[1-(Difluoromethyl)-1H-pyrazol-4-yl]-3-oxo-N-[(2R)-1,1,1-trifluoro-3-hydroxypropan-2-yl]-6-[4-(trifluoromethyl)phenyl]-2,3-dihydropyridazine-4-carboxamide]
> 20000 nM	10 nM	Cn1cc(-n2nc(-c3ccc(C(F)(F)F)cc3)cc(C(=O)N[C@@H]3CCC[C@@H]3O)c2=O)cn1 [Example 239, N-[(1R,2S)-2-Hydroxycyclopentyl]-2-(1-methyl-1H-pyrazol-4-yl)-3-oxo-6-[4-(trifluoromethyl)phenyl]-2,3-dihydropyridazine-4-carboxamide]
> 20000 nM	0.418 nM	C[C@H](NC(=O)c1cc(-c2ccc(C(F)(F)F)cc2)nn(-c2cnsc2)c1=O)C(C)(C)O [Example 196, N-[(2S)-3-Hydroxy-3-methylbutan-2-yl]-3-oxo-2-(1,2-thiazol-4-yl)-6-[4-(trifluoromethyl)phenyl]-2,3-dihydropyridazine-4-carboxamide]
> 20000 nM	349 nM	Cc1cncc(-n2nc(-c3ccc(Cl)cc3)cc(C(=O)N[C@@H](C)CO)c2=O)c1 [Example 304, 6-(4-Chlorophenyl)-N-[(2S)-1-hydroxypropan-2-yl]-2-(5-methylpyridin-3-yl)-3-oxo-2,3-dihydropyridazine-4-carboxamide]
> 20000 nM	9.54 nM	O=C(NCC(O)C(F)F)c1cc(-c2ccc(C(F)(F)F)cc2)nn(-c2cccnc2)c1=O (racemic) [Example 101, N-[(2RS)-3,3-Difluoro-2-hydroxypropyl]-3-oxo-2-(pyridin-3-yl)-6-[4-(trifluoromethyl)phenyl]-2,3-dihydropyridazine-4-carboxamide]
> 20000 nM	64.5 nM	Cn1cc(-n2nc(-c3ccc(Cl)cc3)cc(C(=O)NC[C@H](O)CF)c2=O)cn1 [Example 270, 6-(4-Chlorophenyl)-N-[(2S)-3-fluoro-2-hydroxypropyl]-2-(1-methyl-1H-pyrazol-4-yl)-3-oxo-2,3-dihydropyridazine-4-carboxamide]
> 20000 nM	12.8 nM	Cn1cc(-n2nc(-c3ccc(C(F)(F)F)cc3)cc(C(=O)NC[C@H](O)CF)c2=O)cn1 [Example 245, N-[(2S)-3-Fluoro-2-hydroxypropyl]-2-(1-methyl-1H-pyrazol-4-yl)-3-oxo-6-[4-(trifluoromethyl)phenyl]-2,3-dihydropyridazine-4-carboxamide]
> 20000 nM	251 nM	O=C(NC[C@@H](O)CO)c1cc(-c2ccc(Cl)cc2)nn(-c2cncc(F)c2)c1=O [Example 98, 6-(4-Chlorophenyl)-N-[(2R)-2,3-dihydroxypropyl]-2-(5-fluoropyridin-3-yl)-3-oxo-2,3-dihydropyridazine-4-carboxamide]
> 20000 nM	1.07 nM	C[C@H](NC(=O)c1cc(-c2ccc(C(F)(F)F)cc2)nn(-c2cnn(C)c2)c1=O)C(C)(C)O [Example 206, N-[(2S)-3-Hydroxy-3-methylbutan-2-yl]-2-(1-methyl-1H-pyrazol-4-yl)-3-oxo-6-[4-(trifluoromethyl)phenyl]-2,3-dihydropyridazine-4-carboxamide]
> 20000 nM	3.69 nM	CC(NC(=O)c1cc(-c2ccc(Cl)cc2)nn(-c2cccnc2)c1=O)C(O)C(F)(F)F (single isomer, unassigned) [Example 298, 6-(4-Chlorophenyl)-3-oxo-2-(pyridin-3-yl)-N-(4,4,4-trifluoro-3-hydroxybutan-2-yl)-2,3-dihydropyridazine-4-carboxamide]
> 20000 nM	174 nM	CC(C)(O)CNC(=O)c1cc(-c2ccc(C(F)(F)F)nc2)nn(-c2cncc(F)c2)c1=O [Example 344, 2-(5-Fluoropyridin-3-yl)-N-(2-hydroxy-2-methylpropyl)-3-oxo-6-[6-(trifluoromethyl)pyridin-3-yl]-2,3-dihydropyridazine-4-carboxamide]
> 20000 nM	133 nM	C[C@@H](CO)NC(=O)c1cc(-c2ccc(Cl)cc2)nn(-c2cncc(Cl)c2)c1=O [Example 303, 6-(4-Chlorophenyl)-2-(5-chloropyridin-3-yl)-N-[(2S)-1-hydroxypropan-2-yl]-3-oxo-2,3-dihydropyridazine-4-carboxamide]
> 20000 nM	44.1 nM	Cn1cc(-n2nc(-c3ccc(C(F)F)cc3)cc(C(=O)N[C@@H]3COC[C@@H]3O)c2=O)cn1 (single isomer, unassigned) [Example 320, 6-[4-(Difluoromethyl)phenyl]-N-[(cis)-4-hydroxytetrahydrofuran-3-yl]-2-(1-methyl-1H-pyrazol-4-yl)-3-oxo-2,3-dihydropyridazine-4-carboxamide]
> 20000 nM	293 nM	Cn1cc(-n2nc(-c3ccc(Cl)cc3)cc(C(=O)NC[C@@H](O)CO)c2=O)cn1 [Example 28, 6-(4-Chlorophenyl)-N-[(2R)-2,3-dihydroxypropyl]-2-(1-methyl-1H-pyrazol-4-yl)-3-oxo-2,3-dihydropyridazine-4-carboxamide]
> 20000 nM	131 nM	C[C@H](NC(=O)c1cc(-c2ccc(Cl)cc2)nn(-c2cn[nH]c2)c1=O)C(C)(C)O [Example 276, 6-(4-Chlorophenyl)-N-[(2S)-3-hydroxy-3-methylbutan-2-yl]-3-oxo-2-(1H-pyrazol-4-yl)-2,3-dihydropyridazine-4-carboxamide]
> 20000 nM	7.52 nM	O=C(N[C@@H]1CCCC[C@@H]1O)c1cc(-c2ccc(Cl)cc2)nn(-c2cccnc2)c1=O (relative stereo) [Example 133, 6-(4-Chlorophenyl)-N-[(cis)-2-hydroxycyclohexyl]-3-oxo-2-(pyridin-3-yl)-2,3-dihydropyridazine-4-carboxamide]
> 20000 nM	430 nM	Cn1cc(-n2nc(-c3ccc(CF)cc3)cc(C(=O)NC[C@H](O)C(F)(F)F)c2=O)cn1 [Example 283, 6-[4-(Fluoromethyl)phenyl]-2-(1-methyl-1H-pyrazol-4-yl)-3-oxo-N-[(2S)-3,3,3-trifluoro-2-hydroxypropyl]-2,3-dihydropyridazine-4-carboxamide]
> 20000 nM	118 nM	O=C(NC[C@H](O)CF)c1cc(-c2ccc(OC(F)(F)F)cc2)nn(-c2cccnc2)c1=O [Example 296, N-[(2S)-3-Fluoro-2-hydroxypropyl]-3-oxo-2-(pyridin-3-yl)-6-[4-(trifluoromethoxy)phenyl]-2,3-dihydropyridazine-4-carboxamide]
> 20000 nM	594 nM	CC(C)(O)CNC(=O)c1cc(-c2ccc(Cl)cc2)nn(-c2ccnnc2)c1=O [Example 178, 3-(4-Chlorophenyl)-N-(2-hydroxy-2-methylpropyl)-6-oxo-6H-1,4′-bipyridazine-5-carboxamide]
> 20000 nM	12.7 nM	O=C(N[C@H](CO)C(F)(F)F)c1cc(-c2ccc(Cl)cc2)nn(-c2cncc(F)c2)c1=O [Example 100, 6-(4-Chlorophenyl)-2-(5-fluoropyridin-3-yl)-3-oxo-N-[(2R)-1,1,1-trifluoro-3-hydroxypropan-2-yl]-2,3-dihydropyridazine-4-carboxamide]
> 20000 nM	11.3 nM	Cn1cc(-n2nc(-c3ccc(Cl)cc3)cc(C(=O)N[C@@H]3CCC[C@]3(C)O)c2=O)cn1 (single isomer, unassigned) [Example 335, 6-(4-Chlorophenyl)-N-[(cis)-2-hydroxy-2-methylcyclopentyl]-2-(1-methyl-1H-pyrazol-4-yl)-3-oxo-2,3-dihydropyridazine-4-carboxamide]
